Here are results for 14 molecules from EP4722219A1 (Gan & Lee Pharmaceuticals Co., Ltd., priority 2023, dated 2024).

What all share (type): cell-based
One assay has as its target T1, AR protein (Homo sapiens, UniProt P10275, T878A).
T1 construct: host or cells: LNCaP FGC
T1 sequence (P10275 1-920 T878A): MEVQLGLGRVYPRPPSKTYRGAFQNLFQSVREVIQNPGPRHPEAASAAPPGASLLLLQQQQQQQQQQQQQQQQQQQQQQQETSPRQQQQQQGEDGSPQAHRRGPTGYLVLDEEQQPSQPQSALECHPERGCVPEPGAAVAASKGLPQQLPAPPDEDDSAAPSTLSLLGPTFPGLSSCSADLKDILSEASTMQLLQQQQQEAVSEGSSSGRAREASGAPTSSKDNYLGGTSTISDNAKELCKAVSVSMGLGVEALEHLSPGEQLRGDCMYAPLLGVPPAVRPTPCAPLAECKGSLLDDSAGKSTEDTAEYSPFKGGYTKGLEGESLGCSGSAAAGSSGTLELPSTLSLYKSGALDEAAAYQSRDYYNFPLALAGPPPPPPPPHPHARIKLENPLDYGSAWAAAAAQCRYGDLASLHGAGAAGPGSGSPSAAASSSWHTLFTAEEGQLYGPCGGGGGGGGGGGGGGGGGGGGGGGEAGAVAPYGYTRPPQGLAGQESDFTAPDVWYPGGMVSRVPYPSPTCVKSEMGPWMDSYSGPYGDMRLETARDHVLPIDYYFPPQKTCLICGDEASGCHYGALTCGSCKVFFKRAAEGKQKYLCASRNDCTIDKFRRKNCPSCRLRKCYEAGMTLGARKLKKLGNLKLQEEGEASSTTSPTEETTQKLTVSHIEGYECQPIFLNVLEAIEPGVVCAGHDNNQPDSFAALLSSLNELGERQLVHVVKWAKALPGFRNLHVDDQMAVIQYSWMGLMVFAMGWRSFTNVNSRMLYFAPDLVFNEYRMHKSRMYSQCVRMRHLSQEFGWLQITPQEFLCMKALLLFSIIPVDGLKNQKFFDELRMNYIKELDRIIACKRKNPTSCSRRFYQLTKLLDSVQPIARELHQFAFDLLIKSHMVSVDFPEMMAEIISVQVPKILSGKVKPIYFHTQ
Nature of the assay: AR protein degradation in LNCaP cells (Western blot). Particulars: 8 hours; for Degradation of AR protein in LNCaP cells, 10 nM (%) / percent AR protein degradation at a fixed concentration at 0.01 µM: 10 nM; for Degradation of AR protein in LNCaP cells, 100 nM (%) / percent AR protein degradation at a fixed concentration at 0.1 µM: 100 nM. The method, then: At the same time, the corresponding solvent control was set and cultured for 8 hours. After 8 hours of culture, the culture medium was removed, the cells were washed with PBS, and RIPA lysis buffer containing 1% Protease Inhibitor Cocktail was added. After lysis and centrifugation, the total protein extract was obtained, and the protein concentration in the extract was detected by BCA method. Protein electrophoresis was performed using SDS-PAGE, and then the protein was transferred to a PVDF (Millipore Sigma catalog number PSRP010R5) membrane at a constant voltage of 100V for 60 minutes. The PVDF membrane was placed in a 5% milk powder 1 ×TBST solution and blocked at room temperature for 1 hour. […] The primary antibody solution was discarded and the PVDF membrane was washed with 1×TBST for 5 minutes each time, for three times. […] The secondary antibody solution was discarded and the PVDF membrane was washed with 1 ×TBST for 5 minutes each time, for three times. A dual-color infrared laser imaging system (Licor catalog number Odyssey CLX) was used for Western membrane imaging. The Image Studio software was used to analyze the grayscale of the bands. GAPDH protein bands were also detected for each sample as the reference. The AR protein degradation rate of the compound and the positive control sample was calculated based on the grayscale of the protein bands.
(In general: A western blot detects proteins with antibodies after separation by electrophoresis.)

For a further assay, the system named is LNCaP cells. Nature of the assay: Inhibition of LNCaP cell proliferation (WST-8). As to conditions: Homo sapiens, LNCaP FGC cells, 96 hours. The method, then:
The inhibitory activity of compounds disclosed in the present invention on LNCaP cell proliferation
The cells were cultured overnight in a 37°C, 5% CO2 cell incubator. […] The final concentration of the compound was 9 concentration points of 5-fold serial dilution starting from 10 µM. […] The cells were cultured in a cell culture incubator at 37°C and 5% CO2 for 96 hours. On the sixth day, the 96-well cell culture plate was removed, and 1/10 volume of WST-8 (Beytime, C0040) reagent was added to each well. The absorbance at 450 nm was detected using a microplate reader (TECAN, F50).
A general note: Tetrazolium assays rely on reduction of a dye to a coloured formazan, in cell work by metabolically active cells.

For the next assay, the system named is VCaP cells. Nature of the assay: Inhibition of VCaP cell proliferation (WST-8). As to conditions: Homo sapiens, 168 hours. The method, then: On the first day of the experiment, VCaP cells were seeded at a density of 15,000 cells/well in a 96-well plate using DMEM medium containing 10% fetal bovine serum, with 100µL of cell suspension per well, and cultured overnight in a cell incubator at 37°C and 5% CO2. On the second day, 100µL of the compound of the present invention and the positive control ARV-110 (source: Anaiji) prepared in culture medium at different concentrations were added to each well. The final concentration of the compound was 9 concentration points of 5-fold serial dilution starting from 10 µM. […] On the ninth day, the 96-well cell culture plate was removed and 1/10 volume of WST-8 (Beytime, C0040) reagent was added to each well. The absorbance at 450nm was measured using a microplate reader (TECAN, F50).

A word on the IC50: it is the concentration at which inhibition is half-maximal. Read a low IC50 as higher potency.

As for `CC1(CN2CCC3(CCc4cc(C(=O)N[C@H]5CCC(=O)NC5=O)c(F)cc4O3)CC2)CCN(c2ccc(C(=O)N[C@H]3C(C)(C)[C@H](Oc4ccc(C#N)c(Cl)c4)C3(C)C)cc2)CC1` [A-P-55], at AR protein, the “Degradation of AR protein in LNCaP cells, 10 nM (%)” value is -15% and the “Degradation of AR protein in LNCaP cells, 100 nM (%)” value is 15%. The molecule further yielded an IC50 with LNCaP cells of 0.95 µM. For the same molecule, half-maximal inhibition in the assay on VCaP cells (IC50) was put at 1.05 µM.
The matching figures for `COc1cc(O[C@H]2C(C)(C)[C@H](NC(=O)c3ccc(N4CCC(CN5CCN6c7cc(F)c(C(=O)N[C@H]8CCC(=O)NC8=O)cc7OC[C@H]6C5)CC4)cc3)C2(C)C)ccc1C#N` [A-P-63]: 27%, 68%, 0.24 µM and 0.39 µM.
In the same order, the values of `COc1cc2c(cc1C(=O)N[C@H]1CCC(=O)NC1=O)CCC1(CCN(CC3CCN(c4ccc(N5CCC6(CC5)C[C@H](C)N(c5ccc(C#N)c(Cl)c5)C6)cc4)CC3)CC1)O2` [A-P-54] are 40%, 74%, 0.91 µM and 0.007 µM.
Take `C[C@H]1CC2(CCN(c3ccc(C(=O)N4CCC(CN5CCN6c7cc(F)c(C(=O)N[C@H]8CCC(=O)NC8=O)cc7OC[C@H]6C5)CC4)cc3)CC2)CN1c1ccc(C#N)c(Cl)c1` [A-P-60]: the concentration for half-maximal inhibition (IC50) with LNCaP cells is 0.69 µM; in the assay with VCaP cells, 0.94 µM.
On to `N#Cc1cc2c(cc1Cl)OC1(CCN(c3ccc(C(=O)N4CCC(CN5CCC6(CCc7cc(C(=O)N[C@H]8CCC(=O)NC8=O)c(F)cc7O6)CC5)CC4)cc3)CC1)CO2` [A-P-46, (S)-1'-((1-(4-(7-chloro-6-cyano-3H-spiro[benzo[b][1,4]dioxo-2,4'-piperidin]-1'-yl)benzoyl)piperidin-4-yl)methyl)-N-(2,6-dioxopiperidin-3-yl)-7-fluorospiro[chroman-2,4'-piperidin]-6-carboxamide], for which, at AR protein, the percent AR protein degradation at a fixed concentration at 0.01 µM is 4% and the percent AR protein degradation at a fixed concentration at 0.1 µM came to 15%. Also, the IC50 with LNCaP cells amounted to 0.89 µM. In the assay on VCaP cells, the IC50 was found to be 3.75 µM.
The matching figures for `N#Cc1cc2c(cc1Cl)OCC1(CCN(C(=O)c3ccc(N4CCC(CN5CCC6(CCc7cc(C(=O)N[C@H]8CCC(=O)NC8=O)c(F)cc7O6)CC5)CC4)cc3)CC1)O2` [A-P-44, (S)-1'-((1-(4-(6-chloro-7-cyano-3H-spiro[benzo[b][1,4]dioxane-2,4'-piperidin]-1'-carbonyl)phenyl)piperidin-4-yl)methyl)-N-(2,6-dioxopiperidin-3-yl)-7-fluorospiro[chroman-2,4'-piperidin]-6-carboxamide]: 20%, 9%, 0.24 µM and 2.89 µM.
Regarding `C[C@H]1CC2(CCN(c3ccc(C(=O)N4CCC(CN5CCC6(CC5)COc5cc(NC7CCC(=O)NC7=O)ccc56)CC4)cc3)CC2)CN1c1ccc(C#N)c(Cl)c1` (stereo partly drawn) [A-P-87, 2-chloro-4-((3 S)-8-(4-(4-((6-((2,6-dioxopiperidin-3-yl)amino)-2H-spiro[benzofuran-3,4'-piperidin]-1'-yl)methyl)piperidin-1-carbonyl)phenyl)-3-methyl-2,8-diazaspiro[4.5]decan-2-yl)benzonitrile], the figures for the IC50 with LNCaP cells and in the assay on VCaP cells were 0.14 µM and 0.0014 µM, respectively.
`C[C@H]1CC2(CCN(c3ccc(N4CCC(CN5CCC6(CC5)CCC5(CC6)COc6c5ccc5c6CN(C6CCC(=O)NC6=O)C5=O)CC4)cc3)CC2)CN1c1ccc(C#N)c(Cl)c1` (stereo partly drawn) [A-P-8, (S)-1'-((1-(4-(6-chloro-7-cyanospiro-spiro[tryptophan-3,4'-piperidin]-1'-yl)benzoyl)piperidin-4-yl)methyl)-N-(2,6-dioxopiperidin-3-yl)-7-fluoro-spiro[tryptophan-2,4'-pyridyl]-6-carboxamide]: on AR protein, the percent AR protein degradation at a fixed concentration at 0.01 µM was -4% and the percent AR protein degradation at a fixed concentration at 0.1 µM was 63%. Further, in the assay on LNCaP cells, the IC50 stood at 0.2 µM. This molecule showed a 50% inhibitory concentration (IC50) with VCaP cells of 0.005 µM.
In the same order, the values of `COc1cc2c(cc1C(=O)N[C@H]1CCC(=O)NC1=O)C1(CCN(CC3CCN(C(=O)c4ccc(N5CCC6(CC5)C[C@H](C)N(c5ccc(C#N)c(Cl)c5)C6)cc4)CC3)CC1)CO2` [A-P-82, 1'-((1-(4-((S)-2-(3-chloro-4-cyanophenyl)-3-methyl-2,8-diazaspiro[4.5]decan-8-yl)benzoyl)piperidin-4-yl)methyl)-N-((S)-2,6-dioxohesperidin-3-yl)-6-methoxy-2H-spiro[benzofuran-3,4'-piperidin]-5-carboxamide] are 55%, 83%, 15.7 µM and 0.049 µM.
For the molecule `COc1cc2c(cc1C(=O)N[C@H]1CCC(=O)NC1=O)OC[C@H]1CN(CC3CCN(c4ccc(N5CCC6(CC5)C[C@H](C)N(c5ccc(C#N)c(Cl)c5)C6)cc4)CC3)CCN21` [A-P-75], the IC50 was 0.35 µM in the assay on LNCaP cells and 0.042 µM in the assay with VCaP cells.
`C[C@H]1CC2(CCN(c3ccc(C(=O)N4CCC(CN5CCC6(CC5)COc5ccc(NC7CCC(=O)NC7=O)cc56)CC4)cc3)CC2)CN1c1ccc(C#N)c(Cl)c1` (stereo partly drawn) [A-P-98, 2-chloro-4-((3 S)-8-(4-(4-((5-((2,6-dioxopiperidin-3-yl)amino)-2H-spiro[benzofuran-3,4'-piperidin]-1'-yl)methyl)piperidin-1-carbonyl)phenyl)-3-methyl-2,8-diazaspiro[4.5]decan-2-yl)benzonitrile]: the IC50 in the assay with LNCaP cells came out at 0.43 µM; in the assay on VCaP cells, 0.006 µM.
For `COc1cc2c(cc1C(=O)N[C@H]1CCC(=O)NC1=O)OC[C@H]1CN(CC3CCN(C(=O)c4ccc(N5CCC6(CC5)C[C@H](C)N(c5ccc(C#N)c(Cl)c5)C6)cc4)CC3)CCN21` [A-P-76], the IC50 with LNCaP cells is 2.84 µM; with VCaP cells, 0.078 µM.
The matching figures for `C[C@H]1CC2(CCN(c3ccc(C(=O)N4CCC(CN5CCC6(CC5)Cc5ccc(NC7CCC(=O)NC7=O)cc5O6)CC4)cc3)CC2)CN1c1ccc(C#N)c(Cl)c1` (stereo partly drawn) [A-P-94, 2-chloro-4-((3S)-8-(4-(4-((6-((2,6-dioxopiperidin-3-yl)amino)-3H-spiro[benzofuran-2,4'-piperidin]-1'-yl)methyl)piperidin-1-carbonyl)phenyl)-3-methyl-2,8-diazaspiro[4.5]decan-2-yl)benzonitrile]: 0.39 µM and 0.0015 µM.
The matching figures for `C[C@H]1CC2(CCN(c3ccc(N4CCC(CN5CCN6c7cc(F)c(C(=O)N[C@H]8CCC(=O)NC8=O)cc7OC[C@H]6C5)CC4)cc3)CC2)CN1c1ccc(C#N)c(Cl)c1` [A-P-59, (R)-3-((1-(4-((S)-2-(3-chloro-4-cyanophenyl)-3-methyl-2,8-diazaspiro[4.5]decan-8-yl)phenyl)piperidin-4-yl)methyl)-N-((S)-2,6-dioxopiperidin-3-yl)-9-fluoro-1,2,3,4,4a,5-hexahydrobenzo[b]pyrazi no[1,2-d][1,4]oxazine-8-carboxamide]: 0.15 µM and 0.16 µM.
